Measured values published in the METLIN SMRT retention time set (Domingo-Almenara et al. 2019).

Experiment: gradient 5% acetonitrile 3 min, to 50% in 2 min, to 85% in 15 min, held 3 min, 100 µL/min
Settings: column: Zorbax Extend-C18 2.1 x 50 mm; eluents: water / acetonitrile, 0.1% formic acid
Procedure, shortened: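 Standards, all pure, were combined into mixtures of ~100 molecules and run at 100 μL/min on a Zorbax Extend-C18 column (2.1 × 50 mm, 1.8 μm) with water and acetonitrile, each containing 0.1% formic acid. A coupled quadrupole time-of-flight mass spectrometer operated in positive and negative ionization mode. Retention time values come from computationally picked adduct peaks, each inspected manually.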

SMILES	RP-LC retention time [s]
Cc1ccc(CNC(=O)c2ccc3ncnc(N4CCCCC4)c3c2)o1	637
Cc1nn(-c2nc(-c3ccc(F)cc3)cs2)c(C)c1CC(=O)Nc1ccc(Cl)cc1	1190
CCn1cnc2ccc(-c3noc(Cc4ccc(F)cc4)n3)cc21	742
Cc1ccc(-c2ccc(-n3nc(C)c(S(=O)(=O)N4CCCC4)c3C)nn2)cc1	989
COc1cccc(-n2cc(C(=O)OCc3cccnc3)c3ccccc3c2=O)c1	754
O=C(Cn1nc(N2CCCC2)c2ccccc2c1=O)Nc1ccc(F)c(F)c1	950
Cc1cccc(-c2nc3ccccn3c2NC(=O)Nc2ccccc2F)c1	695
Cc1nn(-c2ccccc2)c(C)c1S(=O)(=O)N1CCC(C(=O)Nc2ccc(C(C)C)cc2)CC1	1100
Cc1sc(-c2noc(C3CCC3)n2)cc1S(=O)(=O)N1CCC(C(=O)N2CCCCC2)CC1	1050
CNC(=O)c1[nH]c2ccc(F)cc2c1N1CCCC1=O	658
COc1cccc(-c2c(C(=O)O)nnn2-c2ccc3c(c2)OCO3)c1	743
COc1ccc2c(c1)C1(CCN(C(=O)Nc3cccc(F)c3)C1)C(=O)N2C (centres undefined)	811
CCCn1ccc2sc(C)c(C(=O)N3CCN(c4ccccc4F)CC3)c2c1=O	916
Cc1cc(C)cc(NC(=O)N2CCC(c3nc(C(=O)N(C)C)c(C)o3)CC2)c1	730
O=C(NCCn1ncccc1=O)Nc1ccc(OC(F)(F)F)cc1	674
CC(C)n1c(=O)oc2cc(-c3noc(-c4cccc(C#N)c4)n3)ccc21	1090
Cc1c(Cl)cccc1N1CCn2c1nc1c2c(=O)n(CC(=O)O)c(=O)n1C	719
Cc1cccc(NS(=O)(=O)c2cc3n(c2)CCCN(C)C3=O)c1C	711
Cc1oc(-c2ccc(NC(=O)c3ccc(Br)o3)cc2)nc1Cn1cccn1	901
O=C(Nc1ccccc1F)[C@@H]1COCC(=O)N1Cc1cccs1	741
O=C(NCCCOC(=O)c1ccccc1)c1ccncc1	613
COc1ccc(S(=O)(=O)N2CCC(c3noc(-c4ccccc4C)n3)CC2)cc1	1150
CCCn1c(CCNC(=O)c2ccc(C)c(F)c2)nc2cccnc21	695

SMILES	RP-LC retention time [s]
NC(=O)C1CCN(S(=O)(=O)c2ccc3[nH]cc(C(=O)O)c(=O)c3c2)CC1	596
CCc1nc2cc(N3CCC(C(=O)NCc4cccs4)CC3)cnc2nc1CC	816
O=C(CSc1n[nH]c(-c2ccccc2)n1)NC1CCCCC1	784
COc1ccc(-c2ccc(=O)n(Cc3nc(-c4ccccc4Cl)no3)n2)cc1	962
O=C(Nc1ccc(N2CCOCC2)nc1)NC1CCCC1	585
CCc1ccc(NC(=O)Cc2c(C)nn(-c3nc(-c4ccc(F)cc4)cs3)c2C)cc1	1240
O=c1c2cnn(-c3ccc(F)cc3)c2ncn1Cc1nc(-c2cccc(Br)c2)no1	1130
CCCN1C(=O)COc2ccc(-c3noc(CCc4ccccc4)n3)cc21	1150
O=C(Nc1ccc(Cn2cncn2)cc1)c1ccoc1	621
Cc1cc(C)n(-c2nc(CC(=O)N3CCc4ccccc4C3)cs2)n1	970
O=C(NCc1ccc2c(c1)OCO2)C1CCN(C(=O)c2ccc(Cl)cc2)CC1	766
COCCNC(=O)C(=O)Nc1ccc(Br)cc1F	839
CCN(CC)CCSC(=O)C(c1ccccc1)c1ccccc1	765
Cc1ccc(-c2csc(NC(=O)CN3C(=O)COc4ccc(Cl)cc43)n2)cc1	1070
CCCc1nc(-n2cccc2)sc1C(=O)Nc1ccc(OC)cc1F	1150
O=C1CCCN1CCCN1C(=O)[C@H]2CN(Cc3ccc(F)cc3Cl)C[C@H]2C1=O	658
Cc1cc(C)cc(NC(=O)C2CCN(S(=O)(=O)c3c(C)[nH]c(C)c3C(=O)N3CCCC3)CC2)c1	695
CCOc1ccc(CCNc2nc(-c3ccc(OC)cc3)no2)cc1OCC	1020
CCC(=O)Nc1ccc(SCC(=O)Nc2ccc(F)c(Cl)c2)nn1	772
COC(=O)c1ncn2c1C(=O)N(Cc1ccccc1)C(C)(C(=O)NCc1ccccc1)C2 (centres undefined)	715
O=C(Nc1cccc(-c2cn3cccnc3n2)c1)c1ccccc1Cl	666
CC(C)CC[C@@H](O)[C@](C)(O)C1CC[C@@]2(O)C3=CC(=O)[C@]4(O)C[C@@H](O)[C@@H](O)C[C@]4(C)C3[C@H](O)C[C@]12C (some centres undefined)	638
Cc1cccc(NS(=O)(=O)c2cc3c(s2)CCN(C(=O)C2CC2)C3)c1	849

SMILES	RP-LC retention time [s]
CN(C)c1ccc(-c2nnc3sc(-c4ccc5ccccc5n4)nn23)cc1	1360
Cc1cc(N2CCCC2)nc(N2CCN(S(=O)(=O)c3ccc4c(c3)Cc3ccccc3-4)CC2)n1	924
Cc1cc(-c2nnc(C3CC3)o2)c(C)n1CC(=O)NCc1ccc(F)cc1F	811
Cc1ccc(Nc2nccc(N(C)c3ccc4c(C)n(C)nc4c3)n2)cc1S(N)(=O)=O	685
COc1cc2c(cc1OC)C1C(C(=O)Nc3ccc4c(c3)OCCO4)c3ccccc3C(=O)N1CC2 (centres undefined)	772
COc1cc(OC)c(NC(=O)Cc2cn3cc(F)ccc3n2)cc1Cl	637
CCOC(=O)c1nc(Nc2ccc(OCC(C)C)cc2)c2ccccc2n1	998
CCc1nccn1Cc1noc(-c2ccc(OC)cc2)n1	626
Clc1cccc(-c2nnc(-c3nc(NCc4ccco4)c4ccccc4n3)o2)c1	1050
Cc1csc(NC(=O)C2CC(=O)N(c3n[nH]c4cccc(F)c34)C2)n1 (centres undefined)	664
CCC(=O)Nc1ccc(CCc2nc3ccc(C(=O)NCCC4=CCCCC4)cc3[nH]2)cc1	696
COc1ccc(Nc2c(-c3ccc(SC)cc3)nc3ncccn23)cc1OC	702
COc1ccccc1-c1nc(COC(=O)C2=CN(Cc3ccccc3)S(=O)(=O)N=C2C)no1	1070
COCc1cc(=O)n2c(n1)N(Cc1cccc(C#N)c1)CC2	669
CCc1sc(NC(=O)C2CC(=O)N(CCc3c[nH]c4ccc(Cl)cc34)C2)nc1-c1ccccc1 (centres undefined)	1060
Cc1ccc(-c2nc(N)n(C(=O)C3CC3)n2)cc1	872
CC(=O)N1CCc2ccccc2C1C(=O)NCc1ccc2c(c1)OCO2 (centres undefined)	731
Cc1ccc(NC(=O)C2(C)Oc3cccnc3NC2=O)c(C)c1 (centres undefined)	727
CCOc1ccc(CNC(=O)C2CCN(S(=O)(=O)c3cn(C(C)C)cn3)CC2)cc1OC	704
Cc1nc2cccnc2n1CCN1CCN(C(=O)Nc2cccc(Br)c2)CC1	607
O=C(CCC(=O)N1c2ccccc2NC2=C(C(=O)CCC2)C1c1ccco1)Nc1ccccc1 (centres undefined)	744
CCOc1ccc(C(=O)N2CCC3(CC2)N=C(c2ccccc2)NO3)cc1	799
COc1ccc2cccc(NC(=O)c3ccsc3)c2n1	1020

SMILES	RP-LC retention time [s]
O=C1CCc2cc(NC(=O)c3ccc(F)c(F)c3)ccc2N1	657
Cc1sc2ccn(Cc3ccc(F)cc3)c(=O)c2c1C(=O)NCc1ccco1	912
CC(=O)c1ccc2c(c1)[C@@H]1C=CC[C@@H]1[C@H](c1cc3c(cc1Br)OCO3)N2	1140
COC(=O)c1c(C)[nH]c(C(=O)N2CCC(CC(=O)NCc3ccc(F)cc3)CC2)c1C	727
O=C(Nc1ccc(-c2nnc3n2CCCC3)cc1)C1CCCC1	648
c1ccc(-c2noc(NCc3ccc4c(c3)OCO4)n2)cc1	974
O=C(Nc1ccc(F)c(Cl)c1)N1CCN(CCn2c(-c3ccncc3)nc3cccnc32)CC1	627
COc1ccccc1NC(=O)C1CCCN1S(=O)(=O)c1cc2c(cc1Cl)NC(=O)CO2 (centres undefined)	805
O=C(Nc1ccc2cn[nH]c2c1)C1CC1	608
CCc1ccc(-c2ccc(=O)n(CCc3nc(-c4ccc5c(c4)OCO5)no3)n2)cc1	1070
CCCN1C(=O)c2cc(S(=O)(=O)Nc3cc(F)ccc3C)ccc2Oc2cccnc21	1120
OCC1CN(C2CCC2)CC12CCN(Cc1ccccc1F)CC2 (centres undefined)	591
CCCC(=O)Nc1sccc1C(N)=O	625
COc1ccc(CCNC(=O)C2CCN(S(C)(=O)=O)c3cc(C)ccc3O2)cc1 (centres undefined)	893
COC(=O)c1ccc2c(=O)n(-c3ccc(Cl)cc3)c(N3CCN(C)CC3)nc2c1	670
Nc1nc(N2CCC3(CC2)OCCO3)ncc1C(=O)NCc1ccccc1	705
COc1cccc(NS(=O)(=O)c2ccc(-c3c(C)noc3C)cc2)c1	884
Cc1ccc(C)c(CNC(=O)C2CCc3nc(N4CCCC4)ncc3C2)c1 (centres undefined)	691
Nc1nnc(-c2ccc(Br)cc2)o1	647
CCOC(=O)CNC(=O)N(C)Cc1nc2cc(C(=O)N(C)C)ccc2n1C	566
